Data reported in patent US20260200896A1, “INHIBITORS OF SPNS2 AND USES THEREOF” (NEW YORK UNIVERSITY, priority 2022, published 2026).

System: Female C57BL/6 mice
Assay: Animal study: lymphocytes and red blood cells in blood enumerated by hematology analyzer 24 hours after oral gavage
Type: in vivo
Settings: oral gavage 400 micromol/kg, 24 hours later, vs vehicle (PEG300)
Procedure: Female C57BL/6 mice 6-8 weeks old were treated by oral gavage with vehicle (PEG300) or compound 510 at 400 micromol/kg. 24 hours later, lymphocytes and red blood cells (RBC) in blood were enumerated by hematology analyzer (XT-2000i). The results are depicted in FIG. 1.

number of red blood cells (RBC) in blood (FIG. 1B): remained unchanged
SMILES: CC(C)C(=O)N(CCO)[C@H]1CCN(c2nc3cc(F)c(F)cc3nc2-c2cccc(OC(F)(F)F)c2)C1 [Compound 510, (S)—N-(1-(6,7-difluoro-3-(3-(trifluoromethoxy)-phenyl)quinoxalin-2-yl)pyrrolidin-3-yl)-N-(2-hydroxyethyl)isobutyramide]
number of lymphocytes in blood (FIG. 1A): substantially reduced
